Assay results: patent US8785470B2, “Heterocyclic compounds and uses thereof” (Infinity Pharmaceuticals, Inc., priority 2011, dated 2014)
Read-outs that look alike come from different tables or passages of the source.

How the values were obtained:
Balb/c splenic B cells = assay: B cell activation and proliferation assay; assay type: cell-based; conditions: Mus musculus, read-out: B cell proliferation EC50
Summary of the method: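 Read-out is metabolic activity by Alamar Blue reduction (5 h, 560Ex/590Em) after 72 h at 37° C, reported as IC50 or EC50. Compound (0.2% DMSO) was added 30 min before a cocktail holding 10 μg/ml LPS or 5 μg/ml F(ab′)2 anti-IgM with 2 ng/ml mouse IL4. Cells were purified Balb/c splenic B cells, 50.000 per well.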

PI3Kα = target: T1, PI3Kα (Homo sapiens, UniProt P42336); assay: PI3-Kinase HTRF assay, PI3Kα; assay type: biochemical; conditions: bins Greater than 10 μM and Greater than 1 μM to 10 μM; 10 μM ATP, PIP2 at 10 μM; read-out: IC50 P13Kα
T1 construct: purchased Millipore Corporation 14-602-K
Excerpt: (§1) A PI3-Kinase HTRF® assay kit (cat No. 33-016) purchased from Millipore Corporation was used to screen compounds provided herein. This assay used specific, high affinity binding of the GRPI pleckstrin homology (PH) domain to PIP3, the product of a Class 1A or 1B PI3 Kinase acting on its physiological substrate PIP2. During the detection phase of the assay, a complex was generated between the GST-tagged PH domain and biotinylated short chain PIP3. The biotinylated PIP3 and the GST-tagged PH domain recruited fluorophores (Streptavidin-Allophycocyanin and Europium-labeled anti-GST respectively) to form the fluorescence resonance energy transfer (FRET) architecture, generating a stable time-resolved FRET signal. The FRET complex was disrupted in a competitive manner by non-biotinylated PIP3, a product formed in the PI3 Kinase assay.
(§2) PI3 Kinase α, β, γ and δ activity was assayed using the PI3 Kinase HTRF® assay kit (catalogue No. 33-016) purchased from Millipore Corporation. Purified recombinant PI3Kα (catalogue No. 14-602-K), PI3Kβ (catalogue No. 14-603-K), PI3Kγ (catalogue No. 14-558-K) and PI3Kδ (catalogue No. 14-604-K) were obtained from Millipore Corporation. Purified recombinant PI3K enzyme was used to catalyze the phosphorylation of phosphatidylinositol 4,5-bisphosphate (PIP2 at 10 μM) to phosphatidylinositol 3,4,5-trisphosphate (PIP3) in the presence of 10 μM ATP. The assay was carried out in 384-well format and detected using a Perkin Elmer EnVision Xcite Multilabel Reader. Emission ratios were converted into percent inhibitions and imported into GraphPad Prism software. The concentration necessary to achieve inhibition of enzyme activity by 50% (IC50) was calculated using concentrations ranging from 20 μM to 0.1 nM (12-point curve). IC50 values were determined using a nonlinear regression model available in GraphPad Prism 5. […]

PI3Kβ = target: T2, PI3Kβ (Homo sapiens, UniProt P42338); assay: PI3-Kinase HTRF assay, PI3Kβ; assay type: biochemical; conditions: bins Greater than 10 μM and Greater than 1 μM to 10 μM; 10 μM ATP, PIP2 at 10 μM
T2 construct: purchased Millipore Corporation 14-603-K
Excerpt: as §1, §2

[1] = column bins 1 μM to 100 nM (given as 100-1000) and Less than 100 nM

T2 sequence (P42338 whole entry): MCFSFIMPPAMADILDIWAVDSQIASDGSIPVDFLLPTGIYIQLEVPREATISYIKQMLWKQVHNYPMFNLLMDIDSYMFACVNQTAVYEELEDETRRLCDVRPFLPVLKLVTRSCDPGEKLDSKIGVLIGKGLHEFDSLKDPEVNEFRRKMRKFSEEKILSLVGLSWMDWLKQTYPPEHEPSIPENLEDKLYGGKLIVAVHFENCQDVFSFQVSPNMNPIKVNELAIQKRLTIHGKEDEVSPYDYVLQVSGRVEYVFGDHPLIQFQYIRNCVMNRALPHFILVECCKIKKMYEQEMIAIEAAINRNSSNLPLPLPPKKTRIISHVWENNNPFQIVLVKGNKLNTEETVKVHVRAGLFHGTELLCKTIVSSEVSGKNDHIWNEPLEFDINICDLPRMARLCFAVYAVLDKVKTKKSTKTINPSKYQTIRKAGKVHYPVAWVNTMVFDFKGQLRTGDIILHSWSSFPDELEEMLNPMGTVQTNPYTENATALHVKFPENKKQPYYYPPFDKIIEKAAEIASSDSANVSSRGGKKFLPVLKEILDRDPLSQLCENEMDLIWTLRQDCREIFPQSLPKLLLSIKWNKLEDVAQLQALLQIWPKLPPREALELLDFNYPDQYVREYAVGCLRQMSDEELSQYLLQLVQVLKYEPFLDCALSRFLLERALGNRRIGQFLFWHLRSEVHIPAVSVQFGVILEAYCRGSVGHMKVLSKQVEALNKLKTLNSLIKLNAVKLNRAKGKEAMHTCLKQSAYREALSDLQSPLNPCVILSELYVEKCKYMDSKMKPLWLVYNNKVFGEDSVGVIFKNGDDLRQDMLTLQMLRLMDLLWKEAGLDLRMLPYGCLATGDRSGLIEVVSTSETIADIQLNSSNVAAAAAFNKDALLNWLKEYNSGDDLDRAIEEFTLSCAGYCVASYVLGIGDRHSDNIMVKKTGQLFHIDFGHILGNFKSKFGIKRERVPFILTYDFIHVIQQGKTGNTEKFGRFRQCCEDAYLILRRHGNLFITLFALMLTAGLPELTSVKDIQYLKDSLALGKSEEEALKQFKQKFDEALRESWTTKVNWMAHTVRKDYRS
T2 sequence (P27986 whole entry partner): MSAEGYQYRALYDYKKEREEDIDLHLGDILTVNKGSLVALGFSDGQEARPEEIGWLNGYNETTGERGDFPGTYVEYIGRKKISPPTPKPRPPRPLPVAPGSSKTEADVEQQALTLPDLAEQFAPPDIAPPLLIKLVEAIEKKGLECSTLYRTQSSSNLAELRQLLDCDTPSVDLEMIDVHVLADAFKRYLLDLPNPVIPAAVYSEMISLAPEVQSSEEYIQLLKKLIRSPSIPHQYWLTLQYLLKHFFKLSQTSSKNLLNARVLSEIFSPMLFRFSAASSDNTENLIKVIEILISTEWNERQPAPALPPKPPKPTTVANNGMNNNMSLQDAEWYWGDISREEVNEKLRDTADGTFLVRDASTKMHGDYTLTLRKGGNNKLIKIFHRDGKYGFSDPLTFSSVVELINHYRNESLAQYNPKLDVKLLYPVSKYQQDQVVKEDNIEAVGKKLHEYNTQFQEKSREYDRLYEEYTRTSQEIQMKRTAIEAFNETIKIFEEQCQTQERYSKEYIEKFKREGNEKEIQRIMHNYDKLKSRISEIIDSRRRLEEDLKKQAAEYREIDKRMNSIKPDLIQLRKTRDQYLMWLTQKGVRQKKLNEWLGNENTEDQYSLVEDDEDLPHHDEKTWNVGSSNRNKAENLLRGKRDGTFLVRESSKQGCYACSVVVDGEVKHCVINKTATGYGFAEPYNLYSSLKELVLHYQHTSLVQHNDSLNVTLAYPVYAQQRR
T1 sequence (P42336 whole entry): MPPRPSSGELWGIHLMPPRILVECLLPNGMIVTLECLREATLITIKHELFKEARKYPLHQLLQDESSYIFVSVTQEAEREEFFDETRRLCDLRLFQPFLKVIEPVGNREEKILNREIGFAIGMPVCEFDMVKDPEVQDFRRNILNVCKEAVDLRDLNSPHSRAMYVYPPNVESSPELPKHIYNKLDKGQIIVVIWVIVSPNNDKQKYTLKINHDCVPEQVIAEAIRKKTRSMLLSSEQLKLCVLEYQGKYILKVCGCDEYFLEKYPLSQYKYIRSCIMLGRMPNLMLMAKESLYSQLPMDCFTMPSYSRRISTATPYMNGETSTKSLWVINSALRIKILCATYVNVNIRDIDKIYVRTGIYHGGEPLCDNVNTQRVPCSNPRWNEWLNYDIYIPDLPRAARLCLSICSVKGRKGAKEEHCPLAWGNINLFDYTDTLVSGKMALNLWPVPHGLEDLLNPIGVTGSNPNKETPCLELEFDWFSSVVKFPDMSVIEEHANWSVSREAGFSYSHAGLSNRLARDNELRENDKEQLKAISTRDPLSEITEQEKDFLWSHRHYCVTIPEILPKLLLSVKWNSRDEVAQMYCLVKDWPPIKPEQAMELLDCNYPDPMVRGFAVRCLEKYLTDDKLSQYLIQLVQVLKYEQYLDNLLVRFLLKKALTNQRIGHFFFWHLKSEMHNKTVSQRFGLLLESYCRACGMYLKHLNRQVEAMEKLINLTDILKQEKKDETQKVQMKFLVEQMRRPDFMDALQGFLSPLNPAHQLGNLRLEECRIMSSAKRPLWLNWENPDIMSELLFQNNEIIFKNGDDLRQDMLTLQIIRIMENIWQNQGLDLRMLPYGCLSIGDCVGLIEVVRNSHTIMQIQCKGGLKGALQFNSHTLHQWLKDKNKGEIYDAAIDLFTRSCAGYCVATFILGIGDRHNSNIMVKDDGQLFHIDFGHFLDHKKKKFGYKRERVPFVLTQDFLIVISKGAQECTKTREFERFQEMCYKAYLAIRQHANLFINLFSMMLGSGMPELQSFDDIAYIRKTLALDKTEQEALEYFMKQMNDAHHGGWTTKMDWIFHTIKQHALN
T1 sequence (P27986 whole entry partner): as the sequence (P27986 whole entry partner) above

IC50 (PI3Kα) | IC50 (PI3Kβ) | Structure (SMILES) | EC50 (Balb/c splenic B cells; [1]) | EC50 (Balb/c splenic B cells)
1000 to 10000 nM | 1000 to 10000 nM | C[C@H](Nc1nc(N)ncc1C#N)c1cc2cccc(-c3cccc(C#N)c3)c2c(=O)n1-c1ccccc1 [Compound 44] | < 100 nM | –
1000 to 10000 nM | 1000 to 10000 nM | C[C@H](Nc1nc(N)ncc1C#N)c1cc2cccc(-c3ccc(S(N)(=O)=O)cc3)c2c(=O)n1-c1ccccc1 [Compound 45] | < 100 nM | –
1000 to 10000 nM | 1000 to 10000 nM | C[C@H](Nc1nc(N)ncc1C#N)c1cc2cccc(-c3cncc(C(F)(F)F)c3)c2c(=O)n1-c1ccccc1 [Compound 52] | < 100 nM | –
1000 to 10000 nM | 1000 to 10000 nM | C[C@H](Nc1nc(N)ncc1C#N)c1nc2cccc(-c3cnn(C)c3)c2c(=O)n1-c1ccccc1 [Compound 61] | < 100 nM | –
1000 to 10000 nM | 1000 to 10000 nM | Cc1cc(-c2cccc3nc([C@H](C)Nc4nc(N)ncc4C#N)n(-c4ccccc4)c(=O)c23)ccn1 [Compound 62] | < 100 nM | –
1000 to 10000 nM | 1000 to 10000 nM | C[C@H](Nc1nc(N)ncc1C#N)c1nc2cccc(-c3ccnnc3)c2c(=O)n1-c1ccccc1 [Compound 66, (S)-2-amino-4-((1-(4-oxo-3-phenyl-5-(pyridazin-4-yl)-3,4-dihydroquinazolin-2-yl)ethyl)amino)pyrimidine-5-carbonitrile] | < 100 nM | –
1000 to 10000 nM | 1000 to 10000 nM | C[C@H](Nc1nc(N)ncc1C#N)c1cc2cccc(-c3cnoc3)c2c(=O)n1-c1ccccc1 [Compound 74] | < 100 nM | –
1000 to 10000 nM | 1000 to 10000 nM | C[C@H](Nc1nc(N)ncc1C#N)c1cc2cccc(-c3ccc4c(c3)OCO4)c2c(=O)n1-c1ccccc1 [Compound 94] | < 100 nM | –
1000 to 10000 nM | 1000 to 10000 nM | C[C@H](Nc1nc(N)ncc1C#N)c1cc2cccc(-c3cncc(F)c3)c2c(=O)n1-c1ccccc1 [Compound 98] | < 100 nM | –
1000 to 10000 nM | 1000 to 10000 nM | C[C@H](Nc1nc(N)ncc1C#N)c1cc2cccc(-c3cccc(S(N)(=O)=O)c3)c2c(=O)n1-c1ccccc1 [Compound 102] | < 100 nM | –
1000 to 10000 nM | 1000 to 10000 nM | COc1ncc(-c2cccc3cc([C@H](C)Nc4nc(N)ncc4C#N)n(C4CC4)c(=O)c23)cn1 [Compound 105] | < 100 nM | –
1000 to 10000 nM | 1000 to 10000 nM | C[C@H](Nc1nc(N)ncc1C#N)c1cc2ccccc2c(=O)n1-c1ccccc1 [Compound 125] | < 100 nM | –
1000 to 10000 nM | 1000 to 10000 nM | C[C@H](Nc1nc(N)ncc1C#N)c1cc2cccc(-c3cccc(NS(C)(=O)=O)c3)c2c(=O)n1-c1ccccc1 [Compound 126] | < 100 nM | –
1000 to 10000 nM | 1000 to 10000 nM | C[C@H](Nc1nc(N)ncc1C#N)c1cc2cccc(-c3ccc(NS(C)(=O)=O)cc3)c2c(=O)n1-c1ccccc1 [Compound 167] | < 100 nM | –
1000 to 10000 nM | 1000 to 10000 nM | C[C@H](Nc1nc(N)ncc1C#N)c1cc2cccc(-c3ccc(=O)n(C)c3)c2c(=O)n1-c1ccccc1 [Compound 183] | < 100 nM | –
1000 to 10000 nM | 1000 to 10000 nM | C[C@H](Nc1nc(N)ncc1C#N)c1cc2cccc(-c3ccnc(N)c3)c2c(=O)n1-c1ccccc1 [Compound 187] | < 100 nM | –
1000 to 10000 nM | 1000 to 10000 nM | C[C@H](Nc1nc(N)ncc1C#N)c1cc2cccc(-c3cncc(S(C)(=O)=O)c3)c2c(=O)n1-c1ccccc1 [Compound 189] | < 100 nM | –
1000 to 10000 nM | 1000 to 10000 nM | C[C@H](Nc1nc(N)ncc1C#N)c1cc2cccc(-c3c[nH]nn3)c2c(=O)n1-c1ccccc1 [Compound 196] | < 100 nM | –
1000 to 10000 nM | 1000 to 10000 nM | C[C@H](Nc1nc(N)ncc1C#N)c1cc2cccc(C#CCCC(=O)N3CCCC3)c2c(=O)n1-c1ccccc1 [Compound 207] | < 100 nM | –

Structure (SMILES) | IC50 (PI3Kα) | IC50 (PI3Kβ) | EC50 (Balb/c splenic B cells; [1]) | EC50 (Balb/c splenic B cells)
COc1cc(-c2cccc3nc([C@H](C)Nc4nc(N)ncc4C#N)n(-c4ccccc4)c(=O)c23)ccn1 [Compound 116] | 1000 to 10000 nM | 1000 to 10000 nM | – | < 100 nM
